Reference: ChEMBL document CHEMBL1201862, “PubChem BioAssay data set” (2004)
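Each compound was tested at five concentrations against cells in 96-well plates for 48 hours. GI50: concentration for 50% inhibition of growth.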 Activity calls are given as the source filed them. Cut-off read from the data, not from the text of the source: active = GI50 up to about 1.1 µM and inactive = higher.

Assays:
Experiment in all cases: NCI tumour cell line growth inhibition, 48 h
[1] = test system: HOP-62
[2] = test system: IGROV-1
[3] = test system: NCI-H23
[4] = test system: MCF7
[5] = test system: NCI-H460
[6] = test system: K562
[7] = test system: SW-620
[8] = test system: UACC-62
[9] = test system: ACHN
[10] = test system: SN12C
[11] = test system: HCC 2998
[12] = test system: CAKI-1
[13] = test system: M14
[14] = test system: SF-268
[15] = test system: UO-31
[16] = test system: KM12
[17] = test system: CCRF-CEM
[18] = test system: SK-MEL-28
[19] = test system: COLO 205
[20] = test system: HCT-15
[21] = test system: A498
[22] = test system: SNB-75
[23] = test system: OVCAR-8
[24] = test system: LOX IMVI
[25] = test system: OVCAR-5
[26] = test system: SK-MEL-2
[27] = test system: SNB-78
[28] = test system: DMS-114
[29] = test system: M19-MEL
[30] = test system: OVCAR-4
[31] = test system: DU-145
[32] = test system: OVCAR-3
[33] = test system: UACC-257
[34] = test system: HOP-18
[35] = test system: KM-20L2
[36] = test system: DMS-273
[37] = test system: SK-OV-3
[38] = test system: SF-295
[39] = test system: SF-539
[40] = test system: Hs-578T
[41] = test system: TK-10
[42] = test system: PC-3
[43] = test system: SNB-19
[44] = test system: LXFL 529
[45] = test system: HL-60
[46] = test system: SR
[47] = test system: T47D
[48] = test system: NCI-H226
[49] = test system: HCT-116
[50] = test system: EKVX
[51] = test system: SK-MEL-5
[52] = test system: 786-0
[53] = test system: MDA-MB-231
[54] = test system: HOP-92
[55] = test system: MDA-MB-435
[56] = test system: RPMI-8226
[57] = test system: RXF 393
[58] = test system: NCI/ADR-RES
[59] = test system: HT-29
[60] = test system: A549
[61] = test system: U-251
[62] = test system: MDA-N
[63] = test system: MOLT-4
[64] = test system: NCI-H522
[65] = test system: Malme-3M
[66] = test system: DLD-1

BrCc1ccc2ccc3ccc(CBr)nc3c2n1
GI50 [1]: 7 µM (inactive)
GI50 [2]: 4.01 µM (inactive)
GI50 [3]: 5.61 µM (inactive)
GI50 [4]: 1.88 µM (inactive)
GI50 [5]: 4.23 µM (inactive)
GI50 [6]: 2.53 µM (inactive)
GI50 [7]: 2.2 µM (inactive)
GI50 [8]: 3.26 µM (inactive)
GI50 [9]: 2.1 µM (inactive)
GI50 [10]: 2 µM (inactive)
GI50 [11]: 2.86 µM (inactive)
GI50 [12]: 3.55 µM (inactive)
GI50 [13]: 2.85 µM (inactive)
GI50 [14]: 3.27 µM (inactive)
GI50 [15]: 2.12 µM (inactive)
GI50 [16]: 3.61 µM (inactive)
GI50 [17]: 0.995 µM (active)
GI50 [18]: 2.81 µM (inactive)
GI50 [19]: 1.92 µM (inactive)
GI50 [20]: 2.01 µM
GI50 [21]: 2.64 µM (inactive)
GI50 [22]: 1.32 µM (inactive)
GI50 [23]: 4.73 µM (inactive)
GI50 [24]: 1.58 µM (inactive)
GI50 [25]: 9.44 µM (inactive)
GI50 [26]: 3.12 µM (inactive)
GI50 [27]: 2.13 µM (inactive)
GI50 [28]: 3.85 µM (inactive)
GI50 [29]: 3.86 µM (inactive)
GI50 [30]: 3.5 µM (inactive)
GI50 [31]: 8.18 µM (inactive)
GI50 [32]: 1.72 µM (inactive)
GI50 [33]: 3.18 µM (inactive)
GI50 [34]: 1.83 µM (inactive)
GI50 [35]: 3.28 µM (inactive)
GI50 [36]: 1.77 µM (inactive)
GI50 [37]: 3.08 µM (inactive)
GI50 [38]: 10.4 µM (inactive)
GI50 [39]: 4.67 µM (inactive)
GI50 [40]: 17.9 µM (inactive)
GI50 [41]: 2.57 µM (inactive)
GI50 [42]: 1.79 µM (inactive)
GI50 [43]: 12.7 µM (inactive)
GI50 [44]: 1.75 µM (inactive)
GI50 [45]: 1.38 µM (inactive)
GI50 [46]: 1.87 µM (inactive)
GI50 [47]: 1.42 µM (inactive)
GI50 [48]: 5.92 µM (inactive)
GI50 [49]: 2.34 µM (inactive)
GI50 [50]: 9.59 µM (inactive)
GI50 [51]: 2.77 µM (inactive)
GI50 [52]: 2.51 µM (inactive)
GI50 [53]: 1.62 µM (inactive)
GI50 [54]: 2.06 µM (inactive)
GI50 [55]: 4.12 µM (inactive)
GI50 [56]: 0.887 µM (active)
GI50 [57]: 2.24 µM (inactive)
GI50 [58]: 1.86 µM (inactive)
GI50 [59]: 1.95 µM (inactive)
GI50 [60]: 13.3 µM (inactive)
GI50 [61]: 5.56 µM (inactive)
GI50 [62]: 2.74 µM (inactive)
GI50 [63]: 1.65 µM (inactive)

CCNc1c(C(=O)N(CC)CC)c(=O)[nH]c2ncccc12
GI50 [1]: > 100 µM (inactive)
GI50 [2]: > 100 µM (inactive)
GI50 [64]: > 100 µM (inactive)
GI50 [3]: > 100 µM (inactive)
GI50 [5]: > 100 µM (inactive)
GI50 [6]: > 100 µM (inactive)
GI50 [7]: > 100 µM (inactive)
GI50 [8]: > 100 µM (inactive)
GI50 [9]: > 100 µM (inactive)
GI50 [10]: > 100 µM (inactive)
GI50 [11]: > 100 µM (inactive)
GI50 [12]: > 100 µM (inactive)
GI50 [65]: > 100 µM (inactive)
GI50 [13]: > 100 µM (inactive)
GI50 [14]: > 100 µM (inactive)
GI50 [15]: > 100 µM (inactive)
GI50 [16]: > 100 µM (inactive)
GI50 [17]: > 100 µM (inactive)
GI50 [18]: > 100 µM (inactive)
GI50 [19]: > 100 µM (inactive)
GI50 [20]: > 100 µM
GI50 [21]: > 100 µM (inactive)
GI50 [22]: > 100 µM (inactive)
GI50 [23]: > 100 µM (inactive)
GI50 [24]: > 100 µM (inactive)
GI50 [25]: > 100 µM (inactive)
GI50 [26]: > 100 µM (inactive)
GI50 [27]: > 100 µM (inactive)
GI50 [28]: > 100 µM (inactive)
GI50 [29]: > 100 µM (inactive)
GI50 [30]: > 100 µM (inactive)
GI50 [32]: > 100 µM (inactive)
GI50 [33]: > 100 µM (inactive)
GI50 [35]: > 100 µM (inactive)
GI50 [36]: > 100 µM (inactive)
GI50 [37]: > 100 µM (inactive)
GI50 [38]: > 100 µM (inactive)
GI50 [39]: > 100 µM (inactive)
GI50 [41]: > 100 µM (inactive)
GI50 [66]: > 100 µM (inactive)
GI50 [43]: > 100 µM (inactive)
GI50 [44]: > 100 µM (inactive)
GI50 [45]: > 100 µM (inactive)
GI50 [48]: > 100 µM (inactive)
GI50 [49]: > 100 µM (inactive)
GI50 [50]: > 100 µM (inactive)
GI50 [51]: > 100 µM (inactive)
GI50 [52]: > 100 µM (inactive)
GI50 [54]: > 100 µM (inactive)
GI50 [56]: > 100 µM (inactive)
GI50 [57]: > 100 µM (inactive)
GI50 [59]: > 100 µM (inactive)
GI50 [60]: > 100 µM (inactive)
GI50 [61]: > 100 µM (inactive)
GI50 [63]: > 100 µM (inactive)
